Common to all, as to experiment: DTP human tumour cell line panel, 48 h
Experiment [1] relates to CAKI-1 renal.
For experiment [2], the system named is COLO 205 colon.
Experiment [3] relates to HOP-62 NSCLC.
For experiment [4], the system named is MDA-MB-231 breast.
Experiment [5] has as its system OVCAR-4 ovarian.
Experiment [6] relates to RPMI-8226 leukemia.
Experiment [7] has as its system RXF 393 renal.
The subject of experiment [8] is SK-MEL-28 melanoma.
Experiment [9] has as its system SNB-19 CNS.
For experiment [10], the system named is SW-620 colon.

Values joined by “and” are separate entries in the source; they are usually repeats but may differ in a detail not shown here. Equal values may be shown once.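 96-well plates; 48 h exposure; 5 concentrations. Endpoints by linear interpolation between flanking doses. Not reached: highest tested concentration assigned. GI50: concentration for 50% inhibition of growth. At the TGI there is no net growth.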

By GI50 is commonly meant the concentration that inhibits growth by half. In general, TGI refers to the concentration giving total growth inhibition. Low readings indicate more potent growth arrest, high ones less potent growth arrest. In the case of `Cc1ccc(OCC2OC(n3cnc4c(Br)nc(Br)nc43)CC2Oc2ccc(C)cc2)cc1` (centres undefined), the GI50 in experiment [1] is 1.2 µM; in experiment [2], 11.4 µM; in experiment [3], 9.08 µM; in experiment [4], 1.74 µM; in [5], 1.56 µM; in [6], 7.52 µM. Moreover, the GI50 in experiment [7] is 13.3 µM; in experiment [9] it was 11.8 µM; in experiment [10], 3.02 µM. Besides, the TGI was 2.26 µM and 4.03 µM in experiment [1]; 25.3 µM and 13.1 µM in experiment [2]; 19.2 µM and 17.1 µM in [3]; 5.27 µM and 4.34 µM in [4]; 4.84 µM and 7.55 µM in [5]; 28.7 µM and > 71.3 µM in [6]. For the same compound, the TGI in [7] was 28.2 µM and 22.4 µM; in [8], 10.1 µM; in experiment [9], 22.9 µM and 17.8 µM; in experiment [10], 10.1 µM and 12.3 µM.
In the case of `CN(C)c1ccc(N=C2C=CC(=O)c3ccccc32)cc1`, the GI50 was 3.58 µM in experiment [1]; 2.06 µM in [2]; 2.19 µM in experiment [3]; 0.899 µM in [4]; 2.02 µM in experiment [5]; 2.92 µM in [6]. The GI50 in [7] is 3.2 µM; in experiment [8] it was 2.38 µM; in experiment [9], 3.42 µM; in experiment [10], 1.68 µM. The TGI in experiment [1] stood at 16.3 µM; in experiment [2], 4.15 µM; in experiment [3], 6.62 µM; in experiment [4], 12.7 µM; in experiment [5], 10.4 µM; in experiment [6], 19.7 µM. Also, the TGI was 14.5 µM in [7], 5.73 µM in [8], 13.9 µM in [9] and 3.42 µM in experiment [10].
As for `COc1ccc(OC)c(/C=C/c2nc(SCc3ccccc3)n(-c3ccc(Cl)cc3)n2)c1`, the GI50 is 2.09 µM in [1]; 14.6 µM in [2]; 9.57 µM in experiment [3]; 30.9 µM in experiment [4]; 67 µM in experiment [5]; 7.39 µM in experiment [6]. For the same compound, the GI50 in experiment [7] is 26.6 µM; in experiment [8], 28.5 µM; in experiment [9] it was 14.3 µM; in [10] it was 5.05 µM. The TGI in experiment [1] was 5.28 µM; in [2] it was more than 100 µM; in [3] it was more than 100 µM; in experiment [4] it was more than 100 µM; in experiment [5], more than 100 µM; in experiment [6], more than 100 µM. The TGI in experiment [7], in [8], in experiment [9] and in [10] was more than 100 µM throughout.
For `CN(C)c1ccc2nc(CC(O)(C(F)(F)F)C(F)(F)F)ccc2c1`, the TGI in [1], in [2], in experiment [3], in experiment [4], in experiment [5] and in [6] was more than 10 µM each time. Also, the TGI in experiment [7], in experiment [8], in experiment [9] and in [10] was more than 10 µM throughout.
For `O=C(O)CCC(C(=O)O)N1C(=O)C2C3CCC(C3)C2C1=O` (centres undefined), the concentration for total growth inhibition (TGI) in [1], in [2], in experiment [3], in experiment [4], in experiment [5] and in experiment [6] was more than 100 µM each time. Moreover, the TGI in [7], in [8], in [9] and in [10] was more than 100 µM throughout.
As for `C/C(=N/N=C(N)N)c1ccc(NC(=O)Nc2ccc(/C(C)=N/N=C(N)N)cc2)cc1`, the GI50 was 22.4 µM in experiment [1]; 43.3 µM in [2]; 21.8 µM in [3]; 20 µM in experiment [4]; 17.1 µM in [5]; 3.77 µM in experiment [6]. Also, the GI50 is 20.3 µM in [7], 15 µM in [8], 19.6 µM in experiment [9] and 48.8 µM in experiment [10]. Also, the TGI in [1] was more than 100 µM; in [2], more than 100 µM; in experiment [3], more than 60.3 µM; in experiment [4], 71.2 µM; in [5] it was 61.1 µM; in [6], 34.2 µM. Besides, the TGI is 42.4 µM in [7], 39.9 µM in experiment [8], 45 µM in [9] and more than 100 µM in [10].
For `CC1=C([Se]CC(OC(=O)[C@@H](CO)NC(=O)OC(C)(C)C)C(=O)NCCCCCC(=O)OCc2ccccc2)C(=O)c2ccccc2C1=O` (some centres undefined), the GI50 in experiment [1] was 1.8 µM; in [2] it was 1.82 µM; in experiment [3], 0.414 µM; in experiment [4], 1.68 µM; in experiment [5] it was 1.53 µM; in experiment [6], 2.18 µM. Moreover, the GI50 was 2.7 µM in experiment [7], 1.79 µM in experiment [8], 0.774 µM in [9] and 1.72 µM in [10]. Further, the TGI in experiment [1] is 3.32 µM; in [2] it was 3.35 µM; in experiment [3], 1.75 µM; in experiment [4], 3.19 µM; in experiment [5], 2.86 µM; in experiment [6], 5.83 µM. In addition, the TGI came to 4.18 µM in experiment [7], 3.21 µM in [8], 2.11 µM in experiment [9] and 3.25 µM in experiment [10].
Consider `Cc1ccc(S(=O)(=O)Nc2ccc(-c3cc(-c4cccc(F)c4)c(C#N)c(N)n3)cc2)cc1`, for which the GI50 was 1.6 µM in experiment [1]; 2.18 µM in [2]; 4.25 µM in [3]; 1.95 µM in [4]; 1.77 µM in [5]; 2.21 µM in [6]. Besides, the GI50 in [7] is 1.44 µM; in experiment [8], 1.96 µM; in experiment [9], 3.15 µM; in experiment [10] it was 2 µM. Further, the TGI stood at 3.16 µM in experiment [1]; 4.48 µM in experiment [2]; 17.2 µM in experiment [3]; 4.6 µM in experiment [4]; 3.67 µM in experiment [5]; 8.92 µM in [6]. Moreover, the TGI worked out at 2.79 µM in [7], 4.08 µM in experiment [8], 11.6 µM in experiment [9] and 4.4 µM in [10].
In the case of `COc1cccc2c1C(=O)c1c(O)c3c(c(O)c1C2=O)CC(O)(C(=O)CO)CC3OC1CC(N)C(O)C(C)O1` (centres undefined), the GI50 in experiment [1] was 16.3 mg/L and 64 mg/L; in experiment [2], 9.99 mg/L and 25.6 mg/L; in [3], 5.83 mg/L and 5.96 mg/L; in [4], 44.1 mg/L and 79.3 mg/L; in [5] it was 46.6 mg/L and > 150 mg/L; in experiment [6], 7.24 mg/L and 13.2 mg/L. Also, the GI50 was 13.3 mg/L and > 150 mg/L in experiment [7]; 33.8 mg/L and 44.8 mg/L in experiment [8]; 2.04 mg/L and 54.6 mg/L in experiment [9]; 7.14 mg/L and 21.2 mg/L in experiment [10]. In addition, the TGI in [1] was 75 mg/L and > 150 mg/L; in experiment [2] it was 75 mg/L and > 150 mg/L; in [3], 75 mg/L and > 150 mg/L; in experiment [4], 75 mg/L and > 150 mg/L; in experiment [5], 75 mg/L and > 150 mg/L; in experiment [6], 75 mg/L and 112 mg/L. The TGI in experiment [7] was 75 mg/L and > 150 mg/L; in experiment [8], 75 mg/L and > 150 mg/L; in [9] it was 75 mg/L and > 150 mg/L; in experiment [10], 75 mg/L and > 150 mg/L.
As to `COc1cnc2c(c1)C(=O)c1c-2n(CCCN2CCNCC2)c(=O)c2cc([N+](=O)[O-])ccc12`, the GI50 in [1] is 0.202 µM; in experiment [2], 0.0617 µM; in [3], 0.065 µM; in [4] it was 1.47 µM; in experiment [5] it was 1.24 µM; in [6], 0.301 µM. The values for the GI50 in experiment [7], in experiment [8] and in [9] were 0.401 µM, 1.42 µM and 0.21 µM, respectively. For the same compound, the TGI in experiment [1] is 1.71 µM; in experiment [2], 1.79 µM; in experiment [3], 0.572 µM; in experiment [4] it was 3.33 µM; in experiment [5], 3.01 µM; in [6] it was 2.28 µM. Also, the TGI in experiment [7] was determined as 1.94 µM; in [8], 3.12 µM; in experiment [9], 2.1 µM.
Consider `O=C1NC(c2cccc(OCc3ccccc3)c2)Nc2ccccc21` (centres undefined), for which the TGI is more than 32.8 µM in experiment [1]; 2.64 µM in [2]; 26.3 µM in experiment [3]; 4.69 µM in [4]; more than 100 µM in experiment [5]; 1.07 µM in experiment [6]. The TGI in experiment [8] was more than 85.7 µM; in [9] it was more than 100 µM; in experiment [10], more than 100 µM.
With `Cc1cc(Cl)cc(Cc2cc(Cl)cc(C)c2O)c1O`, the GI50 was 2.32 µM in [1]; 5.72 µM in experiment [2]; 3.66 µM in [3]; 2.46 µM in experiment [4]; 3.29 µM in experiment [5]; 1.58 µM in experiment [6]. For the same compound, the GI50 is 2.29 µM in [7], 3.46 µM in experiment [8] and 3.32 µM in experiment [9]. Besides, the TGI in experiment [1] came to 9.57 µM; in experiment [2], 18.8 µM; in experiment [3], 11.5 µM; in experiment [4] it was 8.22 µM; in [5] it was 50.6 µM; in experiment [6], 9.35 µM. Also, the TGI in [7] came out at 6.91 µM; in experiment [8] it was 15.2 µM; in experiment [9], 16.8 µM.
